1 molecule from US20260250325A1, “Antiviral Polypeptide Membrane Fusion Inhibitor, and Preparation Method and Application Thereof” (priority 2025, published 2026) can be followed below.

Series [1] in a line: Cytotoxicity test in HEp-2 cells (CCK8 cell viability). The format is cell-based. As to conditions: human; HEp-2 cells, CCK8, 1 day; read-out: CC50. The gist of the method: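 Compound dilutions (final DMSO 0.5%) were applied for 1 day to HEp-2 cells plated at 30,000 per well the day before. CCK8 signal gave survival relative to cell and medium controls, and a four-parameter log(inhibitor)-response fit yielded CC50.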

A further series relates to hPIV3 C243 virus strain. The format is cell-based, hPIV. The following applies: LLC-MK2 cells, hPIV3 C243, plaque reduction; read-out: EC50 against hPIV3 virus. The gist of the method: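 LLC-MK2 cells (40,000/well) infected with about 200 PFU of virus preincubated 1 h with the sample, then overlaid with 0.8% CMC medium containing the sample (0.5% DMSO) for 1 day at 37 °C. Plaques immunostained with TrueBlue and counted; 8 concentrations in duplicate, EC50 from a four-parameter fit.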

In the next series the target is T1, hMPV-N46 (127-172) (Human metapneumovirus, UniProt Q6WB98).
T1 construct: hMPV-N46 (127-172)
The series can be described thus: SPR affinity to hMPV-N46 coupled on CM5 chip. The format is binding.

Where a SMILES comes first, the peptide text is derived from it.

T1 sequence (Q6WB98 127-172): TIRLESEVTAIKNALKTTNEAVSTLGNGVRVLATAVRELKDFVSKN

Regarding `CC[C@H](C)[C@H](NC(=O)[C@H](CCCCN)NC(=O)[C@H](CCCCN)NC(=O)[C@H](CC(C)C)NC(=O)[C@H](CO)NC(=O)[C@H](CCC(N)=O)NC(=O)[C@H](CC(N)=O)NC(=O)[C@@H](NC(=O)[C@H](CCCCN)NC(=O)[C@H](CCCCN)NC(=O)[C@H](CC(=O)O)NC(=O)[C@H](Cc1ccccc1)NC(=O)[C@H](CCC(=O)O)NC(=O)[C@@H](NC(=O)[C@H](CCCCN)NC(=O)[C@H](CCCCN)NC(=O)[C@H](CC(N)=O)NC(=O)[C@@H](NC(=O)[C@H](CC(C)C)NC(=O)[C@H](CCC(=O)O)NC(=O)[C@H](CC(=O)O)NC(=O)[C@H](CO)NC(C)=O)C(C)C)[C@@H](C)CC)[C@@H](C)CC)C(=O)N[C@@H](CCC(=O)O)C(=O)N[C@@H](CCC(=O)O)C(=O)N[C@@H](CO)C(=O)N[C@@H](CC(=O)O)C(=O)N[C@@H](CCCCN)C(=O)N[C@@H](CCCCN)C(=O)N[C@@H](CCCCN)C(=O)N[C@@H](CC(C)C)C(=O)N[C@@H](CCC(=O)O)C(=O)N[C@@H](C)C(=O)N[C@@H](C)C(=O)N[C@@H](C)C(=O)N[C@@H](CCCCN)C(=O)N[C@@H](CCCCN)C(N)=O` [Compound 51] (Ac-SDELVNKKIEFDKKINQSLKKIEESDKKKLEAAAKK-NH2), the 50% cytotoxic concentration (CC50) at 1 day in series [1] was found to be 3200 nM. In addition, in the series on hPIV3 C243 virus strain, the EC50 is 18.8 nM. Also, the affinity on hMPV-N46 (127-172), expressed as Kd, was 14.4 nM.

Usually CC50 stands for the concentration giving 50% cytotoxicity. As a reminder, the EC50 is the concentration that produces a half-maximal response. What is called Kd is the free concentration of one partner at which half of the binding sites on the other are occupied at equilibrium, for simple one-to-one binding. A higher Kd goes with a looser complex.
